Among the data in the supplement of paper PMC10307832 are relative viability values, retold here.

Assay in all cases: relative viability (nuclei count vs DMSO), 5 days (fraction); higher = more cells survive
Compound in experiment [1]: O=C(Nc1cc(C(F)(F)F)cc(C(F)(F)F)c1)c1cc(Cl)ccc1O [IMD-0354] + NC(=O)Nc1cc(-c2cccc(F)c2)sc1C(=O)N[C@H]1CCCNC1 [AZD7762] (partner 0.2 µM)
Put shortly:
(§1)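 Lung cancer cell lines in 1536-well plates got either a single drug or a fixed anchor-drug dose together with five library-drug doses (not always all listed) in √10 steps, by pin tool, on the day after seeding. Nuclei were counted after 5 days, and relative viability is the treated-to-vehicle ratio of nuclei counts. Values are medians of duplicate plates.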

Compound in experiment [2]: O=C(Nc1cc(C(F)(F)F)cc(C(F)(F)F)c1)c1cc(Cl)ccc1O [IMD-0354] + CS(=O)(=O)CCNCc1ccc(-c2ccc3ncnc(Nc4ccc(OCc5cccc(F)c5)c(Cl)c4)c3c2)o1 [Lapatinib] (partner 2 µM)
The procedure, abridged: as §1

Compound in experiment [3]: O=C(Nc1cc(C(F)(F)F)cc(C(F)(F)F)c1)c1cc(Cl)ccc1O [IMD-0354] + CCNC(=O)c1noc(-c2cc(C(C)C)c(O)cc2O)c1-c1ccc(CN2CCOCC2)cc1 [Luminespib] (partner 0.01 µM)
The procedure, abridged: as §1

Compound in experiment [4]: Cc1cnc(CNC(=O)c2c(=O)c3ccc(N4CCCN(C)CC4)nc3n3c2sc2ccccc23)cn1 [CX-5461] + COc1cccc2cc(-c3nc([C@H]4CC[C@H](C(=O)O)CC4)n4ncnc(N)c34)[nH]c12 [OSI-027] (partner 0.5 µM)
Put shortly: as §1

Consider 201T, for which the relative viability was determined as 0.511 in experiment [1] (first compound 0.04 µM); 0.616 in experiment [1] (first compound 0.1265 µM); 0.392 in experiment [1] (first compound 0.4 µM); 0.657 in experiment [1] (first compound 1.265 µM); 0.214 in experiment [1] (first compound 4 µM); 1.07 in experiment [2] (first compound 0.04 µM). Also, the relative viability in experiment [2] (first compound 0.1265 µM) turned out to be 1.08; in experiment [2] (first compound 0.4 µM) it was 0.827; in experiment [2] (first compound 1.265 µM), 1.04; in experiment [2] (first compound 4 µM), 0.333; in experiment [3] (first compound 0.04 µM), 1.19; in experiment [3] (first compound 0.1265 µM), 1.04. The relative viability stood at 0.678 in experiment [3] (first compound 0.4 µM); 0.638 in experiment [3] (first compound 1.265 µM); 0.278 in experiment [3] (first compound 4 µM); 0.911 in experiment [4] (first compound 0.01 µM); 0.669 in experiment [4] (first compound 0.03162 µM); 0.726 in experiment [4] (first compound 0.1 µM). For the same cell line, the relative viability in experiment [4] (first compound 0.3162 µM) came to 0.502; in experiment [4] (first compound 1 µM), 0.552.

With A549, the relative viability in experiment [2] (first compound 0.04 µM) was 1.19; in experiment [2] (first compound 0.1265 µM) it was 1.04; in experiment [2] (first compound 0.4 µM), 0.245; in experiment [2] (first compound 1.265 µM) it was 0.101; in experiment [2] (first compound 4 µM), 0.105.

For the cell line A-427, the relative viability in experiment [1] (first compound 0.04 µM) is 1.01; in experiment [1] (first compound 0.1265 µM), 0.827; in experiment [1] (first compound 0.4 µM), 0.585; in experiment [1] (first compound 1.265 µM), 0.14; in experiment [1] (first compound 4 µM), 0.202; in experiment [2] (first compound 0.04 µM), 1.12. Moreover, the relative viability in experiment [2] (first compound 0.1265 µM) came out at 1.02; in experiment [2] (first compound 0.4 µM) it was 0.678; in experiment [2] (first compound 1.265 µM), 0.618; in experiment [2] (first compound 4 µM) it was 0.105; in experiment [3] (first compound 0.04 µM) it was 1.06; in experiment [3] (first compound 0.1265 µM), 0.985. Moreover, the relative viability in experiment [3] (first compound 0.4 µM) was 0.457; in experiment [3] (first compound 1.265 µM), 0.301; in experiment [3] (first compound 4 µM) it was 0.166; in experiment [4] (first compound 0.01 µM), 0.488; in experiment [4] (first compound 0.03162 µM), 0.534; in experiment [4] (first compound 0.1 µM), 0.542. The relative viability in experiment [4] (first compound 1 µM) was 0.378.

Consider ABC-1, for which the relative viability was 1.26 in experiment [1] (first compound 0.04 µM); 0.98 in experiment [1] (first compound 0.1265 µM); 0.522 in experiment [1] (first compound 0.4 µM); 0.257 in experiment [1] (first compound 1.265 µM); 0.331 in experiment [1] (first compound 4 µM); 1.31 in experiment [2] (first compound 0.04 µM). The relative viability in experiment [2] (first compound 0.1265 µM) is 1.15; in experiment [2] (first compound 1.265 µM) it was 1.17; in experiment [2] (first compound 4 µM) it was 0.612; in experiment [3] (first compound 0.04 µM), 0.381; in experiment [3] (first compound 0.1265 µM) it was 0.82; in experiment [3] (first compound 0.4 µM), 0.32. Moreover, the relative viability in experiment [3] (first compound 1.265 µM) is 0.237; in experiment [3] (first compound 4 µM), 0.307; in experiment [4] (first compound 0.01 µM), 0.465; in experiment [4] (first compound 0.03162 µM), 0.562; in experiment [4] (first compound 0.1 µM), 0.251; in experiment [4] (first compound 1 µM), 0.362.

On to BEN, for which the relative viability in experiment [1] (first compound 0.04 µM) is 0.715; in experiment [1] (first compound 0.1265 µM), 0.793; in experiment [1] (first compound 0.4 µM) it was 0.487; in experiment [1] (first compound 1.265 µM) it was 0.334; in experiment [1] (first compound 4 µM) it was 0.347; in experiment [2] (first compound 0.04 µM) it was 0.601. In addition, the relative viability in experiment [2] (first compound 0.1265 µM) was 0.878; in experiment [2] (first compound 0.4 µM), 0.373; in experiment [2] (first compound 1.265 µM), 0.266; in experiment [2] (first compound 4 µM), 0.229; in experiment [3] (first compound 0.04 µM) it was 0.159; in experiment [3] (first compound 0.1265 µM), 0.533. Besides, the relative viability in experiment [3] (first compound 0.4 µM) is 0.256; in experiment [3] (first compound 1.265 µM) it was 0.161; in experiment [3] (first compound 4 µM), 0.139; in experiment [4] (first compound 0.01 µM) it was 0.346; in experiment [4] (first compound 0.03162 µM), 0.321; in experiment [4] (first compound 0.1 µM), 0.286. For the same cell line, the relative viability in experiment [4] (first compound 0.3162 µM) was found to be 0.281; in experiment [4] (first compound 1 µM), 0.284.

As to CAL-12T, the relative viability stood at 0.655 in experiment [1] (first compound 0.04 µM); 0.744 in experiment [1] (first compound 0.1265 µM); 0.357 in experiment [1] (first compound 0.4 µM); 0.261 in experiment [1] (first compound 1.265 µM); 0.32 in experiment [1] (first compound 4 µM); 0.611 in experiment [2] (first compound 0.04 µM). In addition, the relative viability was 0.665 in experiment [2] (first compound 0.1265 µM); 0.533 in experiment [2] (first compound 0.4 µM); 0.4 in experiment [2] (first compound 1.265 µM); 0.259 in experiment [2] (first compound 4 µM); 0.432 in experiment [3] (first compound 0.04 µM); 0.434 in experiment [3] (first compound 0.1265 µM). Moreover, the relative viability came to 0.338 in experiment [3] (first compound 0.4 µM); 0.126 in experiment [3] (first compound 1.265 µM); 0.172 in experiment [3] (first compound 4 µM); 0.587 in experiment [4] (first compound 0.01 µM); 0.693 in experiment [4] (first compound 0.03162 µM); 0.389 in experiment [4] (first compound 0.1 µM). The relative viability in experiment [4] (first compound 0.3162 µM) worked out at 0.679; in experiment [4] (first compound 1 µM) it was 0.347.

On to COR-L23, for which the relative viability in experiment [2] (first compound 0.04 µM) is 1.09; in experiment [2] (first compound 0.1265 µM), 0.831; in experiment [2] (first compound 0.4 µM), 0.439; in experiment [2] (first compound 1.265 µM), 0.117; in experiment [2] (first compound 4 µM), 0.172; in experiment [3] (first compound 0.04 µM), 0.583. Moreover, the relative viability turned out to be 0.53 in experiment [3] (first compound 0.1265 µM); 0.402 in experiment [3] (first compound 0.4 µM); 0.115 in experiment [3] (first compound 1.265 µM); 0.166 in experiment [3] (first compound 4 µM); 0.802 in experiment [4] (first compound 0.01 µM); 0.808 in experiment [4] (first compound 0.03162 µM). Besides, the relative viability is 0.7 in experiment [4] (first compound 0.1 µM), 0.835 in experiment [4] (first compound 0.3162 µM) and 0.472 in experiment [4] (first compound 1 µM).

COR-L 105: the relative viability was found to be 0.332 in experiment [2] (first compound 0.04 µM); 0.329 in experiment [2] (first compound 0.1265 µM); 0.339 in experiment [2] (first compound 0.4 µM); 0.243 in experiment [2] (first compound 1.265 µM); 0.253 in experiment [2] (first compound 4 µM); 0.891 in experiment [3] (first compound 0.04 µM). In addition, the relative viability in experiment [3] (first compound 0.1265 µM) came to 0.906; in experiment [3] (first compound 0.4 µM) it was 0.463; in experiment [3] (first compound 1.265 µM) it was 0.317; in experiment [3] (first compound 4 µM), 0.236; in experiment [4] (first compound 0.01 µM), 0.767; in experiment [4] (first compound 0.03162 µM), 0.665. The relative viability in experiment [4] (first compound 0.1 µM) stood at 0.532; in experiment [4] (first compound 0.3162 µM), 0.391; in experiment [4] (first compound 1 µM) it was 0.445.
